Results taken from the NIST ThermoML archive (doi:10.1021/je034261a).

What was measured:
[1] = for mass density: 101.33 kPa, Liquid; for Glass transition temperature / Normal melting temperature: DTA
[2] = molar heat capacity at constant pressure; conditions: 101.33 kPa, Liquid, Small sample (50 mg) DSC

CCCCn1cc[n+](C)c1.F[B-](F)(F)F [1-butyl-3-methylimidazolium tetrafluoroborate]
Conditions | mass density, 295.45 K [kg/m3] | mass density, 303.85 K [kg/m3] | mass density, 313.55 K [kg/m3] | mass density, 328.25 K [kg/m3] | mass density, 343.85 K [kg/m3] | molar heat capacity at constant pressure, 298.15 K [J/K/mol] | molar heat capacity at constant pressure, 323.15 K [J/K/mol]
[1] | 1204.8 | 1200.5 | 1194 | 1185 | 1173.7 | – | –
[2] | – | – | – | – | – | 351.5 | 358

Conditions | Glass transition temperature [°C]
[1] | -85.0

CCCCn1cc[n+](C)c1C.F[P-](F)(F)(F)(F)F [1-butyl-2,3-dimethylimidazolium hexafluorophosphate]
Conditions | mass density, 295.65 K [kg/m3] | mass density, 313.15 K [kg/m3] | mass density, 323.15 K [kg/m3] | molar heat capacity at constant pressure, 298.15 K [J/K/mol] | molar heat capacity at constant pressure, 323.15 K [J/K/mol]
[1] | 1241.6 | 1219 | 1205.5 | – | –
[2] | – | – | – | 433.6 | 449.1

Conditions | Glass transition temperature [°C]
[1] | -58.0

CCCCn1cc[n+](C)c1.[Br-] [1-butyl-3-methylimidazolium bromide]
Conditions | Glass transition temperature [°C]
[1] | -50.0

[2]
Conditions | molar heat capacity at constant pressure [J/K/mol]
298.15 K | 316.7
323.15 K | 323.6

CCCCn1cc[n+](C)c1.O=S(=O)([O-])C(F)(F)F [1-butyl-3-methylimidazolium trifluoromethanesulfonate]
Conditions | Normal melting temperature, Crystal [°C] | mass density, 295.75 K [kg/m3] | mass density, 303.95 K [kg/m3] | mass density, 313.35 K [kg/m3] | mass density, 328.75 K [kg/m3] | mass density, 342.95 K [kg/m3] | molar heat capacity at constant pressure, 298.15 K [J/K/mol] | molar heat capacity at constant pressure, 323.15 K [J/K/mol]
[1] | 13.0 | 1301.3 | 1296.5 | 1289.4 | 1279 | 1270 | – | –
[2] | – | – | – | – | – | – | 417.2 | 423.1

CCCC[n+]1ccn(C)c1.O=S(=O)([N-]S(=O)(=O)C(F)(F)F)C(F)(F)F
Conditions | Normal melting temperature, Crystal [°C] | mass density, 296.45 K [kg/m3] | mass density, 304.15 K [kg/m3] | mass density, 313.45 K [kg/m3] | mass density, 323.35 K [kg/m3] | mass density, 333.75 K [kg/m3] | molar heat capacity at constant pressure, 298.15 K [J/K/mol] | molar heat capacity at constant pressure, 323.15 K [J/K/mol]
[1] | -2.0 | 1438.6 | 1433.6 | 1424.7 | 1414.2 | 1405.4 | – | –
[2] | – | – | – | – | – | – | 536.3 | 543.9

Conditions | Glass transition temperature [°C]
[1] | -86.0

CCn1cc[n+](C)c1C.O=S(=O)([N-]S(=O)(=O)C(F)(F)F)C(F)(F)F
Conditions | Normal melting temperature, Crystal [°C] | mass density, 296.15 K [kg/m3] | mass density, 303.75 K [kg/m3] | mass density, 313.55 K [kg/m3] | mass density, 323.35 K [kg/m3] | mass density, 333.65 K [kg/m3] | molar heat capacity at constant pressure, 309.15 K [J/K/mol] | molar heat capacity at constant pressure, 323.15 K [J/K/mol]
[1] | 25.0 | 1491.3 | 1485.5 | 1476.9 | 1468 | 1457.2 | – | –
[2] | – | – | – | – | – | – | 492.7 | 498.8

CCCCn1cc[n+](C)c1.N#CN=C=[N-] [1-butyl-3-methylimidazolium dicyanamide]
Conditions | Normal melting temperature, Crystal [°C] | mass density, 297.15 K [kg/m3] | mass density, 312.95 K [kg/m3] | mass density, 324.35 K [kg/m3] | mass density, 333.95 K [kg/m3] | mass density, 344.15 K [kg/m3] | mass density, 355.85 K [kg/m3] | molar heat capacity at constant pressure, 298.15 K [J/K/mol] | molar heat capacity at constant pressure, 323.15 K [J/K/mol]
[1] | -6.0 | 1058 | 1052.5 | 1046.6 | 1041.5 | 1034 | 1025.8 | – | –
[2] | – | – | – | – | – | – | – | 364.6 | 370

Conditions | Glass transition temperature [°C]
[1] | -90.0

CCCCn1cc[n+](C)c1C.F[B-](F)(F)F [1-butyl-2,3-dimethylimidazolium tetrafluoroborate]
Conditions | Normal melting temperature, Crystal [°C] | mass density, 300.15 K [kg/m3] | mass density, 313.15 K [kg/m3] | mass density, 323.15 K [kg/m3] | molar heat capacity at constant pressure, 330.15 K [J/K/mol] | molar heat capacity at constant pressure, 372.15 K [J/K/mol]
[1] | 37.0 | 1093.5 | 1076.2 | 1063.4 | – | –
[2] | – | – | – | – | 375.3 | 406.5

Conditions | Glass transition temperature [°C]
[1] | -68.0

CCn1cc[n+](C)c1.O=S(=O)([N-]S(=O)(=O)C(F)(F)F)C(F)(F)F
Conditions | Normal melting temperature, Metastable crystal [°C] | mass density, 296.15 K [kg/m3] | mass density, 303.95 K [kg/m3] | mass density, 313.85 K [kg/m3] | mass density, 323.45 K [kg/m3] | mass density, 333.65 K [kg/m3] | molar heat capacity at constant pressure, 298.15 K [J/K/mol] | molar heat capacity at constant pressure, 323.15 K [J/K/mol]
[1] | -17.0 | 1521.3 | 1515.9 | 1506.5 | 1496.7 | 1485.8 | – | –
[2] | – | – | – | – | – | – | 524.3 | 532.2

Conditions | Glass transition temperature [°C]
[1] | -92.0

CCCCn1cc[n+](C)c1.F[P-](F)(F)(F)(F)F [1-butyl-3-methylimidazolium hexafluorophosphate]
Conditions | Normal melting temperature, Crystal [°C] | molar heat capacity at constant pressure, 298.15 K [J/K/mol] | molar heat capacity at constant pressure, 323.15 K [J/K/mol]
[1] | 11.0 | – | –
[2] | – | 397.6 | 405.1

Conditions | Glass transition temperature [°C]
[1] | -76.0

CCCCn1cc[n+](C)c1.[Cl-] [1-butyl-3-methylimidazolium chloride]
Conditions | Glass transition temperature [°C]
[1] | -69.0

[2]
Conditions | molar heat capacity at constant pressure [J/K/mol]
298.15 K | 322.7
323.15 K | 333.7

CCC[n+]1ccn(C)c1C.O=S(=O)([N-]S(=O)(=O)C(F)(F)F)C(F)(F)F
Conditions | mass density, 295.15 K [kg/m3] | mass density, 304.25 K [kg/m3] | mass density, 313.65 K [kg/m3] | mass density, 324.35 K [kg/m3] | mass density, 335.15 K [kg/m3] | mass density, 344.65 K [kg/m3] | molar heat capacity at constant pressure, 298.15 K [J/K/mol] | molar heat capacity at constant pressure, 323.15 K [J/K/mol]
[1] | 1456.7 | 1454.2 | 1446.4 | 1438.6 | 1427.5 | 1415.5 | – | –
[2] | – | – | – | – | – | – | 554.5 | 558.7

Conditions | Glass transition temperature [°C]
[1] | -82.0
